Consider ten molecules from ChEMBL document CHEMBL6153098, “Immunomodulatory Potential of a Bibenzyl-dihydrophenanthrene Derivative Isolated from Calanthe cardioglossa” (J Nat Prod, 2025).

Structures are written as SMILES. The source made the active and inactive calls. The rule behind the calls is not given here.

For data set [1], the system named is THP-1. In words: Immunomodulatory activity in human THP-1 cells assessed as reduction in LPS-induced TNF-alpha production at 10 uM incubated for 4 hrs by ELISA assay. In kind it is functional, cell-based. In general terms: In an ELISA, binding on a coated surface is turned into a signal by an enzyme label.
Data set [2] has as its system THP-1. In words: Cytotoxicity against human THP-1 cells assessed as cell viability at 10 uM incubated for 4 hrs by PrestoBlue cell viability assay. The data set is classed as toxicity, cell-based. To be noted: thp-1, 4 h.
The test system of data set [3] is PBMC. In words: Immunomodulatory activity in multiple sclerosis pateint-derived human PBMC cells assessed as reduction in LPS-induced TNF-alpha production in CD14+ monocytes at 10 uM incubated for 4 hrs by flow cytometry assay. The data set is classed as functional, cell-based.

Consider `COc1cc(O)c2c(c1)CCc1cc(O)ccc1-2`, for which, in data set [1], the outcome was Active. Take `COc1cc(C2Oc3cc(OC)c4c(c3C2COC(C)=O)CCc2cc(O)ccc2-4)ccc1O` (stereo unspecified): the Activity entry in data set [2] is reported as “Non-toxic”.

In the case of `COc1cc([C@H]2Oc3cc4c(cc3[C@@H]2CO)-c2c(cc(O)cc2OC)CC4)ccc1O`, in data set [2], the Activity entry is reported as “Non-toxic”. Still for that read-out and setting: the same measure for `O=c1c2ccccc2ncn1-c1ccccc1O`: “Non-toxic”.

`COc1cc(O)c2c(c1)CCc1cc(O)c(-c3c(O)cc(OC)c4c3CCc3cc(O)ccc3-4)cc1-2`: the Activity result in data set [2] is reported as “Non-toxic”. In data set [1], the outcome was Active. Taken in the same sequence, the figures for `COc1cc(O)cc(CCc2ccc(O)c(OC)c2)c1` [GIGANTOL] were “Non-toxic” and “Active”. Taken in the same sequence, the figures for `COc1cc(O)cc(CCc2cccc(O)c2)c1` [BATATASIN III] were “Non-toxic” and “Active”. In the case of `COc1cc(O)cc2c1-c1cc(-c3c(O)cc(OC)c4c3CCc3cc(O)ccc3-4)c(O)cc1CC2`, the Activity entry in data set [2] was “Non-toxic”.

Turning to `COc1cccc(CCc2cc(OC)cc(O)c2-c2cc3c(cc2O)CCc2cc(OC)cc(O)c2-3)c1`, the Activity result in data set [2] is on record as “Non-toxic”; in data set [1] it was “Active; Compound Exhibited The Most Pronounced Activity”. In addition, in data set [3], the outcome was Active. As for `COc1cc(O)cc2c1-c1ccc(O)cc1CC2`, the Activity entry in data set [2] is recorded as “Non-toxic”. Also, the result in data set [1] was inactive.
